Laboratory results taken from publication PMC11864979, “First-in-class ultralong-target-residence-time p38α inhibitors as a mitosis-targeted therapy for colorectal cancer” (Nature Cancer, 2025).
Where two headings read alike, the source gives them in different places.

What was measured:
Assay in all cases: selectivity profiling in a panel of 340 wild-type kinases (Reaction Biology Europe)
Assay type in all cases: binding
340 wild-type kinases [1] = molecular target: T1, 340 wild-type kinases (Homo sapiens, UniProt O43781)
T1 construct: purchased Reaction Biology Europe
T1 sequence (O43781 1-588): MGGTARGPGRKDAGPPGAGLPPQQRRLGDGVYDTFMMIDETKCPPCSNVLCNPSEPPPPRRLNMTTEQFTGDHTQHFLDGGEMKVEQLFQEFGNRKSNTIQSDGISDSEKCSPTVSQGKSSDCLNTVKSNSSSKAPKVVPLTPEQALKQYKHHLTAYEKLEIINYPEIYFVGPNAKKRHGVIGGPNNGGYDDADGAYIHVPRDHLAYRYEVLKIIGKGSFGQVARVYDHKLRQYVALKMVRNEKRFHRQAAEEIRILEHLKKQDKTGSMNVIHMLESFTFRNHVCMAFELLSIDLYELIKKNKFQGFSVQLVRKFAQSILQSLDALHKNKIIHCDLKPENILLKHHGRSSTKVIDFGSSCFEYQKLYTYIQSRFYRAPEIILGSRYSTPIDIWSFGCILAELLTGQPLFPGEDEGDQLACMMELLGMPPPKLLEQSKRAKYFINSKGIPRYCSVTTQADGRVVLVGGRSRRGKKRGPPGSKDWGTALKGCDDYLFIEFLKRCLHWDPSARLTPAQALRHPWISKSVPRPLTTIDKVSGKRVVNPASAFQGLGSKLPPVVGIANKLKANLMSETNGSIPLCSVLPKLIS

340 wild-type kinases [2] = molecular target: T2, 340 wild-type kinases (Homo sapiens, UniProt P51956)
T2 construct: purchased Reaction Biology Europe
T2 sequence (P51956 1-506): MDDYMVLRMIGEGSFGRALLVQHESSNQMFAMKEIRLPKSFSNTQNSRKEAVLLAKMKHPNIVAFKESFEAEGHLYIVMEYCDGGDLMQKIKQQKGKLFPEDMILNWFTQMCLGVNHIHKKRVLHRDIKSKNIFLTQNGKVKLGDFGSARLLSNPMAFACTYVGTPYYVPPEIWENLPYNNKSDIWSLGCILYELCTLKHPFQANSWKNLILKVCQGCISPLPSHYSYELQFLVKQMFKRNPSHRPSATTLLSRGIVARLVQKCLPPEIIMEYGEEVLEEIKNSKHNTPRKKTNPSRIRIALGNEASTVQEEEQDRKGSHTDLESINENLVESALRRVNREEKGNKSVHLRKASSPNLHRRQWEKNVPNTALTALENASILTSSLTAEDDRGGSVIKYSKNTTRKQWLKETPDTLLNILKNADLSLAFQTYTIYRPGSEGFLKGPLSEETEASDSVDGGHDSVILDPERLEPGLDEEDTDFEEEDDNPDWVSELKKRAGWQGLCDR

340 wild-type kinases [3] = molecular target: T3, 340 wild-type kinases (Homo sapiens, UniProt P53778)
T3 construct: purchased Reaction Biology Europe
T3 sequence (P53778 1-367): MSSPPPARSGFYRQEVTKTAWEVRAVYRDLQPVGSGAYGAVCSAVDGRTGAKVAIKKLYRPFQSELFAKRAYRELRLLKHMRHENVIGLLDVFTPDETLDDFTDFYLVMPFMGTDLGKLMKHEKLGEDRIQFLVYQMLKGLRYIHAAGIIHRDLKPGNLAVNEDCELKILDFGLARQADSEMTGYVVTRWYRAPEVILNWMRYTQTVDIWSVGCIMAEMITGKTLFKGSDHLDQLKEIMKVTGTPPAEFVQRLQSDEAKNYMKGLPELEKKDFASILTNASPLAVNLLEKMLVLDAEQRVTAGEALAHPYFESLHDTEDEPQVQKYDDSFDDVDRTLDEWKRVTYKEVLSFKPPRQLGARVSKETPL

340 wild-type kinases [4] = molecular target: T4, 340 wild-type kinases (Homo sapiens, UniProt Q02763)
T4 construct: purchased Reaction Biology Europe
T4 sequence (Q02763 23-1124): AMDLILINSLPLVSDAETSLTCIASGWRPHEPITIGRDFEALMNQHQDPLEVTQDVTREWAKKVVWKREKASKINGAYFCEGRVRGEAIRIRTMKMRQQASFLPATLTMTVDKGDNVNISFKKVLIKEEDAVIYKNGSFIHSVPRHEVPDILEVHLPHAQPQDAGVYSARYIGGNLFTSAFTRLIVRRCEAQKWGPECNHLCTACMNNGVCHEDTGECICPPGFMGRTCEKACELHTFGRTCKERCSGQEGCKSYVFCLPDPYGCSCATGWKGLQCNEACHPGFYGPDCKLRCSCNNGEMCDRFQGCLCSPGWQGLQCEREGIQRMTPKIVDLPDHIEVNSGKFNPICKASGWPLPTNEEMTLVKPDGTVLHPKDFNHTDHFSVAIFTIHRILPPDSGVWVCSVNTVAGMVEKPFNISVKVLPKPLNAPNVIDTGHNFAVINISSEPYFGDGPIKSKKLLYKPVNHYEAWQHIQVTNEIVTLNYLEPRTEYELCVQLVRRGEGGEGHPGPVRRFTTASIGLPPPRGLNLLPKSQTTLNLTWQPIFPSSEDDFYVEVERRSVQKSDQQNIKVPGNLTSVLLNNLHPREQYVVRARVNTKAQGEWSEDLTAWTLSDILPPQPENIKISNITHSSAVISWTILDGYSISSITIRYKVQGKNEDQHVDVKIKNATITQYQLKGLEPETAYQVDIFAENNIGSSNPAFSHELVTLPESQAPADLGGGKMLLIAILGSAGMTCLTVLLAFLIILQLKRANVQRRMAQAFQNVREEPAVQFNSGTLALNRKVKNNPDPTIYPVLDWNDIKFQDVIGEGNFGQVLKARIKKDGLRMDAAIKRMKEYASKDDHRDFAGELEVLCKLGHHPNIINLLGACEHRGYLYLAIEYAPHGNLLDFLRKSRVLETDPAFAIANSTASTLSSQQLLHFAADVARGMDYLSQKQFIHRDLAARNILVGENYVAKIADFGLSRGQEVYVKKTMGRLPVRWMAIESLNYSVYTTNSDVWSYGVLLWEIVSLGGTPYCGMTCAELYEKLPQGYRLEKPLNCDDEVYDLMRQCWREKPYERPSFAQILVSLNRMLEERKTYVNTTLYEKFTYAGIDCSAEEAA

340 wild-type kinases [5] = molecular target: T5, 340 wild-type kinases (Homo sapiens, UniProt Q13043)
T5 construct: purchased Reaction Biology Europe
T5 sequence (Q13043 1-487): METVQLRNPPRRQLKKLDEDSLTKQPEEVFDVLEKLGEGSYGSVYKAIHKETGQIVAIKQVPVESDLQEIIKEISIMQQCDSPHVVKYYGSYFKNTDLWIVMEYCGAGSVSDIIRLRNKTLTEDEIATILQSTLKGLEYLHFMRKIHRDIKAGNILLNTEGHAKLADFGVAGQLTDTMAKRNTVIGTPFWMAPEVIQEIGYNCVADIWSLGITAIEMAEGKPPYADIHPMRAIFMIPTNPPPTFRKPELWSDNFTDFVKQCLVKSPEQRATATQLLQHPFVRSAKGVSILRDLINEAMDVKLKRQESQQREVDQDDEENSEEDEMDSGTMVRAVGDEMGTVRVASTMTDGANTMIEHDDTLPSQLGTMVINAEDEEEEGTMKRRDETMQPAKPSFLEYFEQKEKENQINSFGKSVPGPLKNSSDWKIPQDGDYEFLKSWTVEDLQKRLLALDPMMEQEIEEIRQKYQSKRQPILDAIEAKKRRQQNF

340 wild-type kinases [6] = molecular target: T6, 340 wild-type kinases (Homo sapiens, UniProt Q14004)
T6 construct: purchased Reaction Biology Europe
T6 sequence (Q14004 whole entry): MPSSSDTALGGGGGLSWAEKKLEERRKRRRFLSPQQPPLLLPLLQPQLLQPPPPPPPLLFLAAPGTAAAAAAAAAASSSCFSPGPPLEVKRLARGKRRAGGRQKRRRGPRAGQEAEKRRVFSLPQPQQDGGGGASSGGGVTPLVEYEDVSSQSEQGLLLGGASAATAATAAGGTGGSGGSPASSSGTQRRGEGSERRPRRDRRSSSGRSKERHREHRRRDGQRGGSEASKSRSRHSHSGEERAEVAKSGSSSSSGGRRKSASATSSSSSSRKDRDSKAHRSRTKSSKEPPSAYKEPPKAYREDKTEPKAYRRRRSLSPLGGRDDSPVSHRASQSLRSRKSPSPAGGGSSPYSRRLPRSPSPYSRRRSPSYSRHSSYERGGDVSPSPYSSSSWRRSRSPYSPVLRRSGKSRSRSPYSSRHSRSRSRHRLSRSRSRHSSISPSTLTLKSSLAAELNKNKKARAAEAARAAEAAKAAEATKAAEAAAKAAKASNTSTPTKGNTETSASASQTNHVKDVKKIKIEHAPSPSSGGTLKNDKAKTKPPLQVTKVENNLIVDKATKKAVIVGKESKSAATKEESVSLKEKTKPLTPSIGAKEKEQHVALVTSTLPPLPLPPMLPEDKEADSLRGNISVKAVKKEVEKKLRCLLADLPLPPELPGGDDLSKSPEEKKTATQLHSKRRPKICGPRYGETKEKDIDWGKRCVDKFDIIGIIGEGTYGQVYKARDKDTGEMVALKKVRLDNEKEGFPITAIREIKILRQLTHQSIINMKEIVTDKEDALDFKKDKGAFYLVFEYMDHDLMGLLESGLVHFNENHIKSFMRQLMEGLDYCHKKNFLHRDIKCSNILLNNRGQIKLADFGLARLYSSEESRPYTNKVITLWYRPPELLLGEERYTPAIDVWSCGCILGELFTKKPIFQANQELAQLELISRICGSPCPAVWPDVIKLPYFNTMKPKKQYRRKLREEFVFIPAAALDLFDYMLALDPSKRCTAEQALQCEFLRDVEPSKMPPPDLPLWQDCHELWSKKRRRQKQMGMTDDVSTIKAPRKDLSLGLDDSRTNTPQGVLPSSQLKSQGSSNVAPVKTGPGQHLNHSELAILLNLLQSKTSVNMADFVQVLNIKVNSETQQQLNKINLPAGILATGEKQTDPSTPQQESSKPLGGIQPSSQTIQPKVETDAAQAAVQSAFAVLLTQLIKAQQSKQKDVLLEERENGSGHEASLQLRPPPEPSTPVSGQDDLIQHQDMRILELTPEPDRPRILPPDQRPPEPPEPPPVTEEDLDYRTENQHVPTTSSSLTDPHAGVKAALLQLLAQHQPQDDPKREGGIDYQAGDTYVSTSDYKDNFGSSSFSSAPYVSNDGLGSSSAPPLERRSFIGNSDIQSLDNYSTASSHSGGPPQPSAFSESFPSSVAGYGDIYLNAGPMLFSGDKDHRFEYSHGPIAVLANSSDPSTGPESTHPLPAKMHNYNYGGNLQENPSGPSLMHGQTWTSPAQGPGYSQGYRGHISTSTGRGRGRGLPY

[7] = read-out: CDK13/CycK residual activity

Molecule `CNC(=O)c1ccc2c(c1)C(=O)c1ccc(Nc3ccc(F)c(NC(=O)C4CC4)c3)cc1CC2` [Compound 2015] has a remaining activity at 0.2 µM (340 wild-type kinases [1]; 0.2 µM 2015, read-out: DYRK3 residual activity) of 104%, a remaining activity at 1 µM (340 wild-type kinases [1]; 1 µM 2015, read-out: DYRK3 residual activity) of 107% and a remaining activity at 0.2 µM (340 wild-type kinases [1]; DYRK3, 0.2 µM, read-out: residual activity) of 104%. The remaining activity at 1 µM (340 wild-type kinases [1]; DYRK3, 1 µM, read-out: residual activity) was 107%, the remaining activity at 0.2 µM (340 wild-type kinases [2]; 0.2 µM 2015, read-out: NEK3 residual activity) was 98.3% and the remaining activity at 1 µM (340 wild-type kinases [2]; 1 µM 2015, read-out: NEK3 residual activity) was 88.8%. The remaining activity at 0.2 µM (340 wild-type kinases [2]; NEK3, 0.2 µM, read-out: residual activity) was 98.3%, the remaining activity at 1 µM (340 wild-type kinases [2]; NEK3, 1 µM, read-out: residual activity) was 88.8% and the remaining activity at 0.2 µM (340 wild-type kinases [3]; 0.2 µM 2015, read-out: p38gamma residual activity) was 83.5%. The remaining activity at 1 µM (340 wild-type kinases [3]; 1 µM 2015, read-out: p38gamma residual activity) was 77.7%, the remaining activity at 0.2 µM (340 wild-type kinases [3]; p38gamma, 0.2 µM, read-out: residual activity) was 83.5% and the remaining activity at 1 µM (340 wild-type kinases [3]; p38gamma, 1 µM, read-out: residual activity) was 77.7%. The remaining activity at 0.2 µM (340 wild-type kinases [4]; 0.2 µM 2015, read-out: TIE2 residual activity) was 120%, the remaining activity at 1 µM (340 wild-type kinases [4]; 1 µM 2015, read-out: TIE2 residual activity) was 90.4% and the remaining activity at 0.2 µM (340 wild-type kinases [4]; TIE2, 0.2 µM, read-out: residual activity) was 120%. For the same molecule, the remaining activity at 1 µM (340 wild-type kinases [4]; TIE2, 1 µM, read-out: residual activity) was 90.5%, the remaining activity at 0.2 µM (340 wild-type kinases [5]; 0.2 µM 2015, read-out: MST1 residual activity) was 98.1% and the remaining activity at 1 µM (340 wild-type kinases [5]; 1 µM 2015, read-out: MST1 residual activity) was 100%. It also gave a remaining activity at 0.2 µM (340 wild-type kinases [5]; MST1, 0.2 µM, read-out: residual activity) of 98.1%, a remaining activity at 1 µM (340 wild-type kinases [5]; MST1, 1 µM, read-out: residual activity) of 100% and a remaining activity at 0.2 µM (340 wild-type kinases [6]; [7]) of 87.3%. The remaining activity at 1 µM (340 wild-type kinases [6]; [7]) was 86.5%, the remaining activity at 0.2 µM (340 wild-type kinases [6]; read-out: residual activity) was 87.3% and the remaining activity at 1 µM (340 wild-type kinases [6]; read-out: residual activity) was 86.5%.
